Assay results from patent US8263664B2, “pH-sensitive polymeric micelles for drug delivery” (priority 2002, dated 2012).

Columns and labels:
MCF-7/DOX^R cells = assay: MTT cytotoxicity against DOX-resistant MCF-7/DOX^R cells; settings: 48 hrs incubation, pH 8.0-6.8
Protocol: DOX-resistant MCF-7 cells (MCF-7/DOX^R) were selected from MCF-7 cells (Korean Cell Line Bank (KCLB)) that were stepwise exposed at 0.001-10 mg/mL of free DOX. Here, cells were maintained in RPMI-1640 (Gibco, Uxbridge, UK) medium with 2 mM L-glutamine, 5% penicillin-streptomycin, and 10% fetal bovine serum in a humidified incubator 37° C. and 5% CO2 atmosphere.
For the cytotoxicity test of free DOX or drug-loaded polymeric micelles against sensitive MCF-7 or MCF-7/DOX^R cells, cells (5×10^4 cells/mL) growing as a monolayer, were seeded at 96-well dish in 200 mL of RPMI 1640 medium before 24 hrs. Free DOX or DOX loaded micelles in RPMI 1640 medium with pH 7.4 or 6.8 were prepared immediately before use as described above, added to medium-removed 96-well dish with different DOX concentration, and incubated for 48 hrs. Chemosensitivity was assessed using the tetrazolium salt MTT (Sigma Chemical Co.). Then, 100 mL of PBS pH 7.4 containing 20 mL of MTT (500 mg/L) solution was added to each well. The plates were incubated for an additional 4 hrs, and then 100 mL of DMSO was added to each well. The absorbance of each well was read on a microplate reader using a test wavelength of 570 nm and a reference wavelength 630 nm.

[1] = system: human breast MCF-7/DOX^R carcinoma xenografts; assay: Growth inhibition of human breast carcinoma (MCF-7/DOX^R) xenografts; assay type: in vivo; settings: 10 mg/kg DOX equivalent i.v. days 0, 3 and 6
Protocol: Tumor volume was calculated using a formula, tumor volume=0.52×length×width×height. Dimensions were measured with an electronic digital caliper. Two to three weeks after inoculation (tumor volume 150-200 mm^3) in vivo antitumor studies were performed. Saline (control), free DOX, or DOX-loaded micelles in aqueous saline solution were injected intravenously through a tail vein by 1-3 bolus injections at three day intervals. The injection volume (approximately 0.1 mL/10 g body weight) of micelle preparation was adjusted to give 10 mg DOX/kg body weight. Five to eight mice per study were used. Tumor volume and body weight were monitored with elapsed time. A mean standard error was calculated for each experimental point.
For the preparation of doxorubicin-loaded micelles, doxorubicin.HCl (DOX.HCl, Sigma Chemical Co., St. Louis, Mo.) was desalted by stirring overnight in the presence of two molar equivalents of triethylamine (Sigma Chemical Co.) in DMSO (Sigma Chemical Co.). […] The amount of entrapped DOX was determined by measuring UV absorbance at 481 nm of the drug after dissolving micelles in DMSO. […]

A2780/DOX^R tumor = system: A2780/DOX^R tumor; parameters: species or system nude mice; settings: mouse, in vivo, iv
Protocol: To directly explore the extent of drug extravasation from the blood vessels and accumulation of DOX in the tumor, the time-dependent fluorescence intensity of DOX in the tumor sight was measured using a non-invasive skin fold window chamber model, which allows real-time measurements. To investigate the in situ delivery of polymeric micelles to solid tumors, a non-invasive visualization method using a “dorsal skin-fold window chamber model” was used. M. R. Dreher et al., Tumor vascular permeability, accumulation, and penetration of macromolecular drug carriers, 98 J. Nat'l Cancer Inst. 335-344 (2006). To establish the window chamber model, S. Shan et al., A novel rodent mammary window of orthotic breast cancer for intravital microscopy, 65 Microvasc. Res. 109-117 (2003), a flap of skin measuring 1 cm in diameter was dissected away from opposing surfaces of the dorsal skin flap of an anesthetized mouse, leaving a facial plane with its associated vasculature. The flaps were held vertically away from the body with a titanium saddle, which was sutured to both sides of the flap. […] DOX was incorporated into the polymeric micellar core, and DOX fluorescence imaging was captured in the skin dorsal window. […] Observation was made using intravital fluorescence microscopy (Olympus BX51WI Microscope, Leeds Precision Instruments, Inc., Minnesota) over time.

COc1cccc2c1C(=O)c1c(O)c3c(c(O)c1C2=O)C[C@@](O)(C(=O)CO)C[C@@H]3O[C@H]1C[C@H](N)[C@H](O)[C@H](C)O1 [free DOX, doxorubicin]
cytotoxicity against MCF-7/DOX^R cells (MCF-7/DOX^R cells): little reduced | body weight change [1]: more weight loss | course of DOX fluorescence intensity in the tumor (A2780/DOX^R tumor): declined after 20 min and became dark at 60 min | time at which DOX fluorescence intensity in tumor started to appear (A2780/DOX^R tumor): ≤ 7 min
